According to PubChem BioAssay (NCI):
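Growth conditions: 96-well plates. Treatment: test compound, 48 hours, 5 concentrations. Analysis: linear interpolation between bracketing concentrations; unreached endpoints set to highest concentration. TGI: total growth inhibition.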

Experiments:
Test in all cases: NCI anticancer screen, dose series, 48 h
[1] = test system: CCRF-CEM leukemia
[2] = test system: SK-OV-3 ovarian
[3] = test system: SN12C renal
[4] = test system: OVCAR-3 ovarian
[5] = test system: RXF 393 renal
[6] = test system: SNB-19 CNS
[7] = test system: HCC-2998 colon
[8] = test system: U251 CNS
[9] = test system: HCT-15 colon
[10] = test system: RPMI-8226 leukemia
[11] = test system: UO-31 renal
[12] = test system: CAKI-1 renal
[13] = test system: IGROV1 ovarian
[14] = test system: HL-60(TB) leukemia
[15] = test system: OVCAR-5 ovarian
[16] = test system: SW-620 colon
[17] = test system: COLO 205 colon
[18] = test system: NCI-H522 lung
[19] = test system: UACC-62 melanoma
[20] = test system: SF-295 CNS
[21] = test system: 786-0 renal
[22] = test system: NCI/ADR-RES ovarian
[23] = test system: ACHN renal
[24] = test system: MALME-3M melanoma
[25] = test system: NCI-H23 lung
[26] = test system: MDA-N
[27] = test system: BT-549 breast
[28] = test system: HOP-62 NSCLC
[29] = test system: OVCAR-4 ovarian
[30] = test system: A549 NSCLC
[31] = test system: HCT-116 colon
[32] = test system: SR leukemia
[33] = test system: HS 578T breast
[34] = test system: NCI-H226 lung
[35] = test system: HOP-92 NSCLC
[36] = test system: K-562 leukemia
[37] = test system: SK-MEL-2 melanoma
[38] = test system: SF-268 CNS
[39] = test system: SK-MEL-28 melanoma
[40] = test system: EKVX NSCLC
[41] = test system: MOLT-4 leukemia
[42] = test system: KM12 colon
[43] = test system: OVCAR-8 ovarian
[44] = test system: PC-3 prostate
[45] = test system: HT29 colon
[46] = test system: DU-145 prostate
[47] = test system: SNB-75 CNS
[48] = test system: UACC-257 melanoma
[49] = test system: T-47D breast
[50] = test system: MCF7 breast
[51] = test system: MDA-MB-435
[52] = test system: TK-10 renal
[53] = test system: M14 melanoma
[54] = test system: SF-539 CNS
[55] = test system: LOX IMVI melanoma
[56] = test system: SK-MEL-5 melanoma
[57] = test system: NCI-H460 lung
[58] = test system: A498 renal
[59] = test system: MDA-MB-231 breast

CC(C)OP(=O)(OC(C)C)C(C(F)(F)F)C(F)(F)F
TGI [1]: > 100000 nM
TGI [2]: > 100000 nM
TGI [3]: > 100000 nM
TGI [4]: > 100000 nM
TGI [5]: > 100000 nM
TGI [6]: > 100000 nM
TGI [7]: > 100000 nM
TGI [8]: > 100000 nM
TGI [9]: > 100000 nM
TGI [10]: > 100000 nM
TGI [11]: > 100000 nM
TGI [12]: > 100000 nM
TGI [13]: > 100000 nM
TGI [14]: > 100000 nM
TGI [15]: > 100000 nM
TGI [16]: > 100000 nM
TGI [17]: > 100000 nM
TGI [18]: > 100000 nM
TGI [19]: > 100000 nM
TGI [20]: > 100000 nM
TGI [21]: > 100000 nM
TGI [22]: > 100000 nM
TGI [23]: > 100000 nM
TGI [24]: > 100000 nM
TGI [25]: > 100000 nM
TGI [26]: > 100000 nM
TGI [27]: > 100000 nM
TGI [28]: > 100000 nM
TGI [29]: > 100000 nM
TGI [30]: > 100000 nM
TGI [31]: > 100000 nM
TGI [32]: > 100000 nM
TGI [33]: > 100000 nM
TGI [34]: > 100000 nM
TGI [35]: > 100000 nM
TGI [36]: > 100000 nM
TGI [37]: > 100000 nM
TGI [38]: > 100000 nM
TGI [39]: > 100000 nM
TGI [40]: > 100000 nM
TGI [41]: > 100000 nM
TGI [42]: > 100000 nM
TGI [43]: > 100000 nM
TGI [44]: > 100000 nM
TGI [45]: > 100000 nM
TGI [46]: > 100000 nM
TGI [47]: > 100000 nM
TGI [48]: > 100000 nM
TGI [49]: > 100000 nM
TGI [50]: > 100000 nM
TGI [51]: > 100000 nM
TGI [52]: > 100000 nM
TGI [53]: > 100000 nM
TGI [54]: > 100000 nM
TGI [55]: > 100000 nM
TGI [56]: > 100000 nM

COC1/C=C/C(C)C(OC)CC(O)/C=C/C(C)C(C(C)C(OC)C(C)CCC(=O)C(C)C(C/C=C/N(C)C=O)OC)OC(=O)/C=C/C=C(\C)CC(OC)C(OC)C2=CC(=O)O[C@@H](C(C)C(OC)C1)[C@H]2O (stereo not given in full)
TGI [57]: 188 nM
TGI [2]: 104 nM
TGI [3]: > 25000 nM
TGI [4]: 48.9 nM
TGI [5]: 78 nM
TGI [6]: 244 nM
TGI [7]: 51.8 nM
TGI [8]: 120 nM
TGI [10]: 3240 nM
TGI [11]: 76.1 nM
TGI [12]: 52.6 nM
TGI [14]: > 25000 nM
TGI [15]: 118 nM
TGI [18]: 72.2 nM
TGI [19]: 185 nM
TGI [20]: 79.7 nM
TGI [21]: 113 nM
TGI [22]: 145 nM
TGI [23]: 158 nM
TGI [24]: 115 nM
TGI [25]: 151 nM
TGI [26]: 159 nM
TGI [27]: 163 nM
TGI [28]: 67.3 nM
TGI [29]: 1410 nM
TGI [30]: 497 nM
TGI [31]: 61.3 nM
TGI [32]: > 25000 nM
TGI [33]: 93 nM
TGI [34]: 71.4 nM
TGI [35]: 77.3 nM
TGI [58]: 61.4 nM
TGI [38]: 129 nM
TGI [39]: 121 nM
TGI [40]: 280 nM
TGI [41]: > 9730 nM
TGI [59]: 83.5 nM
TGI [43]: 199 nM
TGI [44]: 86.2 nM
TGI [45]: > 25000 nM
TGI [47]: 85.9 nM
TGI [48]: 105 nM
TGI [49]: 151 nM
TGI [50]: 170 nM
TGI [51]: 195 nM
TGI [52]: 124 nM
TGI [53]: 84.9 nM
TGI [55]: 25 nM
TGI [56]: 76.3 nM
